US8912146B2, “Derivatives of APF and methods of use” (University of Maryland, Baltimore, priority 2008, dated 2014)
“Also recorded” adds a separate entry of the source. Where a SMILES comes first, the peptide text is derived from it. [ ]: non-standard residue; d: D form. The star is where a group is joined. ξ: configuration not given here. X1 = CC(=O)NC1C(O[C@@H]2OC(CO)[C@H](O)C(O)C2O)[C@@H](O)C(CO)O[C@@H]1*; Thr(3ξ) = CC(O)[C@H](N)C(=O)O; NMeA = CN[C@@H](C)C(=O)O; ξL = CC(C)CC(N)C(=O)O; ξV = CC(C)C(N)C(=O)O; ξA = CC(N)C(=O)O

Assays:
[1] = test system: primary normal human bladder epithelial cells; conditions: Keay et al., 2004; cited from earlier work
[2] = test system: Akt/GSK3/beta catenin signaling in T24 bladder carcinoma cells; test: Western blot / qRT-PCR of Akt/GSK3/beta catenin signaling in T24 cells; type: cell-based; conditions: 50 nM
Procedure: Gene expression was determined by quantitative RT-PCR, and specific protein expression or phosphorylation was determined by Western blot. p53 mRNA and protein expression served as positive controls for APF activity. Beta actin expression served as a standard control for Western blot analyses (see FIGS. 38-40).

Hs839.T melanoma cells = test: 3H-thymidine incorporation in melanoma cells; type: cell-based; conditions: for inhibition of melanoma cell proliferation: compared to cell medium alone (p<0.00001)
Procedure: Ovarian carcinoma (Caov-3), prostate carcinoma (LNCaP), melanoma (Hs839.T), pancreatic carcinoma (PANC-1), bladder carcinoma (T24, RT4 and TCCSuP), kidney carcinoma (ACHN), cervical carcinoma (HeLa), lung carcinoma (A549), colon carcinoma (WiDr), and breast carcinoma (Bt-474) cells were all purchased from the American Type Culture Collection (ATCC). Caov-3, HS839.T, PANC-1, and BT-474 cells were grown in DMEM medium (with 4 mM L-glutamine—Gibco BRL) containing 10% heat-inactivated fetal calf serum, 4.5 g/L glucose, 1.5 g/L sodium bicarbonate and 1% antibiotic/antimycotic solution (all supplements from Sigma except sodium bicarbonate which is from Gibco BRL). LNCaP cells were grown in RPMI medium (with 2 mM L-glutamine—Gibco BRL) containing10% heat-incativated fetal calf serum, 10 mM HEPES buffer, 1 mM sodium pyruvate, 4.5 g/L glucose, 1.5 g/L sodium bicarbonate, and 1% antibiotic/antimycotic solution (all supplements from Sigma except sodium bicarbonate which is from Gibco BRL). T24 and RT4 cells were grown in McCoy's 5A medium (Gibco BRL) containing 10% heat-inactivated fetal calf serum, 1% L-glutamine, 2.2 g/L sodium bicarbonate, and 1% antibiotic/antimycotic solution (all supplements from Sigma except sodium bicarbonate which is from Gibco BRL). TCCSuP, HeLa, and WiDr cells were grown in MEM (Gibco BRL) containing 10% heat-inactivated fetal calf serum, 1% L-glutamine, 1 mM sodium pyruvate, and 1% antibiotic/antimycotic solution (all supplements from Sigma). ACHN cells were grown in the same medium as TCCSuP and HeLa cells with the exception that it also contained 1.5 g/L sodium bicarbonate (Gibco BRL). A549 cells were grown in F12 medium (Gibco BRL) containing 10% heat-inactivated fetal calf serum, 1% L-glutamine, and 1% antibiotic/antimycotic solution (all supplements from Sigma).
Cancer (carcinoma or melanoma) cell proliferation was measured by ^3H-thymidine incorporation into each type of cancer cell, plating 3.0×10^3 cells/well (A549 cells) or 1.5×10^3 cells/well (all other cancer cells) onto a 96 well cell culture plate (VWR 29442-054), in 150 ul/well of the respective normal growth medium for each cell type (see above). All APF congeners were resuspended as described for normal bladder epithelial cells, except using the specific serum-free medium appropriate for each cell type, and the remainder of the assay was performed as described for normal bladder cells, above.
(§1) Significance of the difference in mean values between groups was determined by an analysis of variance.
(§2) Cell proliferation was measured by ^3H-thymidine incorporation into each cell type, plating cells in […] of their respective medium (see above) onto a 96-well cell culture plate (Corning, N.Y.) at a predetermined optimal cell density for APF inhibition of cell proliferation: Caov-3, PANC-1, T24, HeLa, and HS839.T cells were plated at a density of 1.5×10^3 cells/well; A549 cells were plated at a density of 3×10^3 cells/well. On the next day, cell growth medium was removed and replaced with serum-free medium appropriate for each cell type. […] Cells were then incubated at 37° C. in a 5% CO2 atmosphere for 48 hours, after which cell contents were harvested, methanol-fixed onto glass fiber filter paper, and the amount of radioactivity incorporated determined. […]

[3] = test system: carcinoma cell lines (WiDr, HeLa, PANC-1, CaOv3, BT474, ACHN, T24, A549); test: 3H-thymidine incorporation in carcinoma cell lines; type: cell-based; conditions: 48 hrs; for inhibition of carcinoma cell line proliferation: compared to cell medium alone (p<0.00001)
Procedure: Ovarian carcinoma (Caov-3), prostate carcinoma (LNCaP), melanoma (Hs839.T), pancreatic carcinoma (PANC-1), bladder carcinoma (T24, RT4 and TCCSuP), kidney carcinoma (ACHN), cervical carcinoma (HeLa), lung carcinoma (A549), colon carcinoma (WiDr), and breast carcinoma (Bt-474) cells were all purchased from the American Type Culture Collection (ATCC). Caov-3, HS839.T, PANC-1, and BT-474 cells were grown in DMEM medium (with 4 mM L-glutamine—Gibco BRL) containing 10% heat-inactivated fetal calf serum, 4.5 g/L glucose, 1.5 g/L sodium bicarbonate and 1% antibiotic/antimycotic solution (all supplements from Sigma except sodium bicarbonate which is from Gibco BRL). LNCaP cells were grown in RPMI medium (with 2 mM L-glutamine—Gibco BRL) containing10% heat-incativated fetal calf serum, 10 mM HEPES buffer, 1 mM sodium pyruvate, 4.5 g/L glucose, 1.5 g/L sodium bicarbonate, and 1% antibiotic/antimycotic solution (all supplements from Sigma except sodium bicarbonate which is from Gibco BRL). […]
Cancer (carcinoma or melanoma) cell proliferation was measured by ^3H-thymidine incorporation into each type of cancer cell, plating 3.0×10^3 cells/well (A549 cells) or 1.5×10^3 cells/well (all other cancer cells) onto a 96 well cell culture plate (VWR 29442-054), in 150 ul/well of the respective normal growth medium for each cell type (see above). […]
as §1
as §2, with “cells/well.” for “cells/well. On the next day, cell growth medium was removed and replaced with serum-free medium appropriate for each cell type.”

[4] = test system: primary normal human bladder epithelial cells; test: 3H-thymidine incorporation (antiproliferative activity) in primary normal bladder epithelial cells; type: cell-based; conditions: for % of activity: relative to 1 (as-APF) run on the same plate, from IC50, inactive = no significant activity at <25 μM
Procedure: Cell Culture. Cystoscopy was performed under general anesthesia, and 4-mm^2 pieces of transitional epithelium with submucosal bladder tissue were obtained for the growth of primary bladder epithelial cells, as previously described (Keay et al., 1996; 2004). Primary normal bladder epithelial cells were propagated in DMEM-F12 (Media-Tech, Herndon Va.) with 10% heat-inactivated fetal bovine serum (FBS), 1% antibiotic/antimycotic solution, 1% L-glutamine, 0.25 units/mL insulin (all from Sigma, St. Louis, Mo.), and 5 ng/mL hEGF (R&D Systems, Minneapolis, Minn.) at 37° C. in a 5% CO2 atmosphere and characterized by binding of AE-1/AE-3 pancytokeratin antibodies (Signet, Dedham, Mass.).
^3H-Thymidine Incorporation. Cell proliferation was measured by ^3H-thymidine incorporation into explanted normal human bladder epithelial cells, plating 1.5×10^4 cells/well onto a 96 well cell culture plate (VWR 29442-054), in 150 ul/well MEM containing 10% heat inactivated FBS, 1% antibiotic/antimycotic solution, and 1% L-glutamine (all from Sigma), resulting in a doubling time of 48-72 hours, as previously described (Keay et al., 1996; 2004). Each purified lyophilized synthetic APF congener was resuspended in acetonitrile/distilled water (1:1), and applied to the cells in serum-free MEM (containing only L-glutamine and antibiotics/antimycotics); cell controls received acetonitrile/distilled water diluted in serum-free MEM alone. Cells were then incubated at 37° C. in a 5% CO2 atmosphere for 48 hours. The cell contents harvested and methanol-fixed onto glass fiber filter paper, and the amount of radioactivity incorporated determined. Significant inhibition of ^3H-thymidine incorporation was defined as a mean decrease in counts per minute of greater than 2 standard deviations from the mean of control cells for each plate. Inhibition of cell proliferation was determined from a semi-log plot of dose-response for each APF derivative; IC50 was determined as the concentration of each derivative that caused a mean 50% inhibition of thymidine incorporation as compared to the mean of untreated cell controls.
Statistical Analysis. The thymidine incorporation (APF biological activity) assay was performed in triplicate on at least two separate runs, with 1 run simultaneously in triplicate on the same plate. The significance of the difference between mean values for each congener vs. mean values for compound 1 was determined by an analysis of variance.

[5] = nonelectroporated T24 control cells, p<0.05

Compound	activity in biological antiproliferation assays, previously determined [1]	antiproliferative activity compared with as-APF (1), in words [4]	% of activity [4]	further results
Neu5Acα2-3Galβ1-3GalNAcα-O-TVPAAVVVA	essentially equipotent	–	–	–
Neu5Acα2-3Galβ1-4GlcNAcα-O-SLPAAVVVA	essentially equipotent	–	–	–
CC(=O)NC1C(O[C@@H]2OC(CO)[C@H](O)C(O)C2O)[C@@H](O)C(CO)O[C@@H]1OC(C)[C@H](N)C(=O)NC(C(=O)N1CCC[C@H]1C(=O)NC(C)C(=O)N[C@@H](C)C(=O)NC(C(=O)N[C@H](C(=O)NC(C(=O)N[C@@H](C)C(=O)O)C(C)C)C(C)C)C(C)C)C(C)C (stereo partly shown) [Derivative 1, Galβ1-3GalNAcα-O-TVPAAVVVA]	essentially equipotent	–	–	mRNA and protein expression of total Akt, GSK3beta, beta catenin ([2]; T24 cells, p>0.05): neither mRNA nor protein expression of total Akt, GSK3beta, or beta catenin changed significantly; Akt phosphorylation (serine 473 and threonine 308) [2, 5]: significantly decreased; GSK3beta phosphorylation (tyrosine 216) [2, 5]: significantly decreased; beta catenin phosphorylation (serine 33/37 and threonine 41) [2, 5]: significantly increased; beta catenin phosphorylation (serine 45) [2, 5]: significantly decreased; inhibition of melanoma cell proliferation (Hs839.T melanoma cells; 48 hrs): significantly inhibited proliferation; IC50 in melanoma cells (Hs839.T melanoma cells; 48 hrs, listed as as-APF): low to mid nanomolar range; inhibitor concentration at which significant inhibition occurred, melanoma cells vs carcinoma cells (Hs839.T melanoma cells; listed as as-APF): 1-2 orders of magnitude higher; inhibitor concentration at which significant inhibition occurred, melanoma cells vs carcinoma cells (Hs839.T melanoma cells; listed as asialo-APF): 2 orders of magnitude higher; inhibition of carcinoma cell line proliferation [3]: significantly inhibited proliferation; IC50 in carcinoma cell lines ([3]; listed as as-APF): low to mid nanomolar range
Galβ1-3GalNAcβ-O-TVPAAVVVA	completely inactive	–	–	–
Neu5Ac α 2-3Galβ1-4-GlcNAcα-O-TVPAAVVVA	essentially equipotent	–	–	–
Galβ1-4GlcNAcα-O-SLPAAVVVA	essentially equipotent	–	–	–
TVPAAVVVA [nonglycosylated nonapeptide, reference compound]	completely inactive	–	–	inhibition of melanoma cell proliferation (Hs839.T melanoma cells; 48 hrs, listed as negative control peptide): no effect; also recorded: none of these cell lines was inhibited; inhibition of carcinoma cell line proliferation ([3]; listed as negative control peptide): no effect; also recorded: none of these cell lines was inhibited
CC(=O)NC1C(O[C@@H]2OC(CO)[C@H](O)C(O)C2O)[C@@H](O)C(CO)O[C@@H]1OC[C@H](N)C(=O)NC(C(=O)N1CCC[C@H]1C(=O)NC(C)C(=O)N[C@@H](C)C(=O)NC(C(=O)N[C@H](C(=O)NC(C(=O)N[C@@H](C)C(=O)O)C(C)C)C(C)C)C(C)C)C(C)C (stereo partly shown) [Derivative 3] (H-S(X1)[ξV]P[ξA]A[ξV]V[ξV]A-OH)	–	4 orders of magnitude	0.01%	–
CC(=O)NC1C(O[C@@H]2OC(CO)[C@H](O)C(O)C2O)[C@@H](O)C(CO)O[C@@H]1OC(C)[C@H](N)C(=O)NC(CC(C)C)C(=O)N1CCC[C@H]1C(=O)NC(C)C(=O)N[C@@H](C)C(=O)NC(C(=O)N[C@H](C(=O)NC(C(=O)N[C@@H](C)C(=O)O)C(C)C)C(C)C)C(C)C (stereo partly shown) [Derivative 4] (H-[Thr(3ξ)](X1)[ξL]P[ξA]A[ξV]V[ξV]A-OH)	–	inactivation	inactive	–
CC(=O)NC1C(O[C@@H]2OC(CO)[C@H](O)C(O)C2O)[C@@H](O)C(CO)O[C@@H]1OC(C)[C@H](N)C(=O)NC(C(=O)N1CCC[C@H]1C(=O)NC(C)C(=O)N[C@@H](CO)C(=O)NC(C(=O)N[C@H](C(=O)NC(C(=O)N[C@@H](CO)C(=O)O)C(C)C)C(C)C)C(C)C)C(C)C (stereo partly shown) [Derivative 23] (H-[Thr(3ξ)](X1)[ξV]P[ξA]S[ξV]V[ξV]S-OH)	–	partial inactivation	0.2%	–
CC(=O)NC1C(O[C@@H]2OC(CO)[C@H](O)C(O)C2O)[C@@H](O)C(CO)O[C@@H]1OC(C)[C@H](N)C(=O)NC(C(=O)N[C@@H](C)C(=O)NC(C)C(=O)N[C@@H](C)C(=O)NC(C(=O)N[C@H](C(=O)NC(C(=O)N[C@@H](C)C(=O)O)C(C)C)C(C)C)C(C)C)C(C)C (stereo partly shown) [Derivative 11] (H-[Thr(3ξ)](X1)[ξV]A[ξA]A[ξV]V[ξV]A-OH)	–	2-3 orders of magnitude decrease	0.3%	–
CC(=O)NC1C(O[C@@H]2OC(CO)[C@H](O)C(O)C2O)[C@@H](O)C(CO)O[C@@H]1OC(C)[C@H](N)C(=O)NC(C(=O)N1CCC[C@H]1C(=O)NC(C)C(=O)N[C@@H](C)C(=O)O)C(C)C (stereo partly shown) [Derivative 17] (H-[Thr(3ξ)](X1)[ξV]P[ξA]A-OH)	–	completely inactive	inactive	–
CC(=O)NC1C(O[C@@H]2OC(CO)[C@H](O)C(O)C2O)[C@@H](O)C(CO)O[C@@H]1OC(C)[C@H](N)C(=O)NC(C(=O)N1CCC[C@H]1C(=O)NCCCCCCCCCCCC(=O)O)C(C)C (stereo partly shown) [Derivative 16]	–	completely inactive	inactive	–
CC(=O)NC1C(O[C@@H]2OC(CO)[C@H](O)C(O)C2O)[C@@H](O)C(CO)O[C@@H]1OC(C)[C@H](N)C(=O)NC(C(=O)N(C)[C@@H](C)C(=O)NC(C)C(=O)N[C@@H](C)C(=O)NC(C(=O)N[C@H](C(=O)NC(C(=O)N[C@@H](C)C(=O)O)C(C)C)C(C)C)C(C)C)C(C)C (stereo partly shown) [Derivative 14] (H-[Thr(3ξ)](X1)[ξV][NMeA][ξA]A[ξV]V[ξV]A-OH)	–	4 orders of magnitude decrease	0.05%	–
